Structures are written as SMILES. Like-named read-outs stand apart in the source and are kept apart here.

The test system of one experiment is MOLT-4. In words: Cell viability assay (MTS) in MOLT-4 cells. As to conditions: Homo sapiens, MOLT-4. It counts as cell-based. The protocol:
(§1) Acute lymphoblastic leukemia cells (MOLT-4 and RS4; 11) were incubated with increasing concentrations of Bcl-xL degraders for 48 h. Cell viability was measured by tetrazolium-based MTS assay.

The next experiment deals with RS4; 11. In words: Cell viability assay (MTS) in RS4; 11 cells. Format: cell-based. As to conditions: Homo sapiens, RS4-11. The protocol:
as §1

Setting [1] is: Table 2, 48 hr, MTS, read-out: Anti-Cancer Activity IC50 (48 hr) MOLT-4.
Where [2] appears, read: Table 2, 48 hr, MTS, read-out: Anti-Cancer Activity IC50 (48 hr) RS4, 11.
Setting [3] is: Table 5, 48 h, read-out: MOLT-4 48 h IC50.
[4] abbreviates: Table 5, 48 h, read-out: RS4 48 h IC50.

Usually IC50 stands for the concentration that inhibits the measured activity by half. `Cc1ncsc1-c1ccc([C@H](C)NC(=O)[C@@H]2C[C@@H](O)CN2C(=O)[C@@H](NC(=O)CNC(=O)c2ccc(N3CCN(CC4(C)CCC(c5ccc(Cl)cc5)=C(CN5CCN(c6ccc(C(=O)NS(=O)(=O)c7ccc(N[C@H](CCN8CCOCC8)CSc8ccccc8)c(S(=O)(=O)C(F)(F)F)c7)cc6)CC5)C4)CC3)cc2)C(C)(C)C)cc1` (stereo partly drawn) [Compound 10, (2S,4R)-1-((2S)-2-(2-(4-(4-((4′-chloro-4-methyl-6-((4-(4-(((4-(((R)-4-morpholino-1-(phenylthio)butan-2-yl)amino)-3-((trifluoromethyl)sulfonyl)phenyl)sulfonyl)carbamoyl)phenyl)piperazin-1-yl)methyl)-2,3,4,5-tetrahydro-[1,1′-biphenyl]-4-yl)methyl)piperazin-1-yl)benzamido)acetamido)-3,3-dimethylbutanoyl)-4-hydroxy-N—((S)-1-(4-(4-methylthiazol-5-yl)phenyl)ethyl)pyrrolidine-2-carboxamide]: the half-maximal inhibitory concentration (IC50) with MOLT-4 (setting [1]) and in the experiment on RS4; 11 (setting [2]) was 100 to 500 nM throughout.

As to `Cc1ncsc1-c1ccc([C@H](C)NC(=O)[C@@H]2C[C@@H](O)CN2C(=O)[C@@H](NC(=O)CCCNC(=O)c2ccc(N3CCN(CC4(C)CCC(c5ccc(Cl)cc5)=C(CN5CCN(c6ccc(C(=O)NS(=O)(=O)c7ccc(N[C@H](CCN8CCOCC8)CSc8ccccc8)c(S(=O)(=O)C(F)(F)F)c7)cc6)CC5)C4)CC3)cc2)C(C)(C)C)cc1` (stereo partly drawn) [Compound 11, (2S,4R)-1-((2S)-2-(4-(4-(4-((4′-chloro-4-methyl-6-((4-(4-(((4-(((R)-4-morpholino-1-(phenylthio)butan-2-yl)amino)-3-((trifluoromethyl)sulfonyl)phenyl)sulfonyl)carbamoyl)phenyl)piperazin-1-yl)methyl)-2,3,4,5-tetrahydro-[1,1′-biphenyl]-4-yl)methyl)piperazin-1-yl)benzamido)butanamido)-3,3-dimethylbutanoyl)-4-hydroxy-N—((S)-1-(4-(4-methylthiazol-5-yl)phenyl)ethyl)pyrrolidine-2-carboxamide], the concentration for half-maximal inhibition (IC50) in the experiment on MOLT-4 (setting [1]) and in the experiment with RS4; 11 (setting [2]) was 20 to 100 nM in each case.

As for `Cc1ncsc1-c1ccc([C@H](C)NC(=O)[C@@H]2C[C@@H](O)CN2C(=O)[C@@H](NC(=O)CNC(=O)c2ccc(N3CCN(CCN(C)CC4(C)CCC(c5ccc(Cl)cc5)=C(CN5CCN(c6ccc(C(=O)NS(=O)(=O)c7ccc(N[C@H](CCN8CCOCC8)CSc8ccccc8)c(S(=O)(=O)C(F)(F)F)c7)cc6)CC5)C4)CC3)cc2)C(C)(C)C)cc1` (stereo partly drawn) [Compound 13], the 50% inhibitory concentration (IC50) with MOLT-4 (setting [1]) and in the experiment on RS4; 11 (setting [2]) was 100 to 500 nM throughout.

Consider `Cc1ncsc1-c1ccc([C@H](C)NC(=O)[C@@H]2C[C@@H](O)CN2C(=O)[C@@H](NC(=O)CCCNC(=O)c2ccc(N3CCN(CCN(C)CC4(C)CCC(c5ccc(Cl)cc5)=C(CN5CCN(c6ccc(C(=O)NS(=O)(=O)c7ccc(N[C@H](CCN8CCOCC8)CSc8ccccc8)c(S(=O)(=O)C(F)(F)F)c7)cc6)CC5)C4)CC3)cc2)C(C)(C)C)cc1` (stereo partly drawn) [Compound 14], for which the 50% inhibitory concentration (IC50) with MOLT-4 (setting [1]) and in the experiment on RS4; 11 (setting [2]) was 20 to 100 nM each time.

Turning to `Cc1ncsc1-c1ccc([C@H](C)NC(=O)[C@@H]2C[C@@H](O)CN2C(=O)[C@@H](NC(=O)CCCCCNC(=O)c2ccc(N3CCN(CCN(C)CC4(C)CCC(c5ccc(Cl)cc5)=C(CN5CCN(c6ccc(C(=O)NS(=O)(=O)c7ccc(N[C@H](CCN8CCOCC8)CSc8ccccc8)c(S(=O)(=O)C(F)(F)F)c7)cc6)CC5)C4)CC3)cc2)C(C)(C)C)cc1` (stereo partly drawn) [Compound 15], the IC50 with MOLT-4 (setting [1]) and in the experiment with RS4; 11 (setting [2]) was 20 to 100 nM in each case.

With `Cc1ncsc1-c1ccc([C@H](C)NC(=O)[C@@H]2C[C@@H](O)CN2C(=O)[C@@H](NC(=O)CN2CCC(CN3CCN(CC4(C)CCC(c5ccc(Cl)cc5)=C(CN5CCN(c6ccc(C(=O)NS(=O)(=O)c7ccc(N[C@H](CCN8CCOCC8)CSc8ccccc8)c(S(=O)(=O)C(F)(F)F)c7)cc6)CC5)C4)CC3)CC2)C(C)(C)C)cc1` (stereo partly drawn) [Compound 16, (2S,4R)-1-((2S)-2-(2-(4-((4-((4′-chloro-4-methyl-6-((4-(4-(((4-(((R)-4-morpholino-1-(phenylthio)butan-2-yl)amino)-3-((trifluoromethyl)sulfonyl)phenyl)sulfonyl)carbamoyl)phenyl)piperazin-1-yl)methyl)-2,3,4,5-tetrahydro-[1,1′-biphenyl]-4-yl)methyl)piperazin-1-yl)methyl)piperidin-1-yl)acetamido)-3,3-dimethylbutanoyl)-4-hydroxy-N—((S)-1-(4-(4-methylthiazol-5-yl)phenyl)ethyl)pyrrolidine-2-carboxamide], the concentration for half-maximal inhibition (IC50) was < 20 nM in the experiment on MOLT-4 (setting [1]), 12.7 nM in the experiment on MOLT-4 (setting [3]), 20 to 100 nM in the experiment on RS4; 11 (setting [2]) and 42.8 nM in the experiment on RS4; 11 (setting [4]).

With `Cc1ncsc1-c1ccc([C@H](C)NC(=O)[C@@H]2C[C@@H](O)CN2C(=O)[C@@H](NC(=O)CC(=O)N2CCN(CC3CCN(CC4(C)CCC(c5ccc(Cl)cc5)=C(CN5CCN(c6ccc(C(=O)NS(=O)(=O)c7ccc(N[C@H](CCN8CCOCC8)CSc8ccccc8)c(S(=O)(=O)C(F)(F)F)c7)cc6)CC5)C4)CC3)CC2)C(C)(C)C)cc1` (stereo partly drawn) [Compound 17], the half-inhibitory concentration (IC50) lay within 100 to 500 nM with MOLT-4 (setting [1]) and 20 to 100 nM with RS4; 11 (setting [2]).

On to `Cc1ncsc1-c1ccc([C@H](C)NC(=O)[C@@H]2C[C@@H](O)CN2C(=O)[C@@H](NC(=O)CCCC(=O)N2CCN(CC3CCN(CC4(C)CCC(c5ccc(Cl)cc5)=C(CN5CCN(c6ccc(C(=O)NS(=O)(=O)c7ccc(N[C@H](CCN8CCOCC8)CSc8ccccc8)c(S(=O)(=O)C(F)(F)F)c7)cc6)CC5)C4)CC3)CC2)C(C)(C)C)cc1` (stereo partly drawn) [Compound 18], for which the IC50 in the experiment with MOLT-4 (setting [1]) and with RS4; 11 (setting [2]) was 20 to 100 nM in each case.

In the case of `Cc1ncsc1-c1ccc([C@H](C)NC(=O)[C@@H]2C[C@@H](O)CN2C(=O)[C@@H](NC(=O)CCCCCC(=O)N2CCN(CC3CCN(CC4(C)CCC(c5ccc(Cl)cc5)=C(CN5CCN(c6ccc(C(=O)NS(=O)(=O)c7ccc(N[C@H](CCN8CCOCC8)CSc8ccccc8)c(S(=O)(=O)C(F)(F)F)c7)cc6)CC5)C4)CC3)CC2)C(C)(C)C)cc1` (stereo partly drawn) [Compound 19], the concentration for half-maximal inhibition (IC50) with MOLT-4 (setting [1]) was < 20 nM; with RS4; 11 (setting [2]), 20 to 100 nM.

For the compound `Cc1ncsc1-c1ccc([C@H](C)NC(=O)[C@@H]2C[C@@H](O)CN2C(=O)[C@@H](NC(=O)CCCCCOCc2cn(CC3(C)CCC(c4ccc(Cl)cc4)=C(CN4CCN(c5ccc(C(=O)NS(=O)(=O)c6ccc(N[C@H](CCN7CCOCC7)CSc7ccccc7)c(S(=O)(=O)C(F)(F)F)c6)cc5)CC4)C3)nn2)C(C)(C)C)cc1` (stereo partly drawn) [Compound 20, (2S,4R)-1-((2S)-2-(6-((1-((4′-chloro-4-methyl-6-((4-(4-(((4-(((R)-4-morpholino-1-(phenylthio)butan-2-yl)amino)-3-((trifluoromethyl)sulfonyl)phenyl)sulfonyl)carbamoyl)phenyl)piperazin-1-yl)methyl)-2,3,4,5-tetrahydro-[1,1′-biphenyl]-4-yl)methyl)-1H-1,2,3-triazol-4-yl)methoxy)hexanamido)-3,3-dimethylbutanoyl)-4-hydroxy-N—((S)-1-(4-(4-methylthiazol-5-yl)phenyl)ethyl)pyrrolidine-2-carboxamide], the IC50 with MOLT-4 (setting [1]) was 20 to 100 nM; in the experiment with MOLT-4 (setting [3]), 88.1 nM; with RS4; 11 (setting [2]), < 20 nM; with RS4; 11 (setting [4]) it was 15.6 nM.

The record behind these values is US20250154141A1 (University of Florida Research Foundation, Incorporated, priority 2021, published 2025).
